Experimental data: ChEMBL document CHEMBL5104211, “Design and synthesis of bile acid derivatives and their activity against colon cancer” (RSC Med Chem, 2022)
Active and inactive are the calls of the source. No cut-off for these calls is given here.

How the values were obtained:
HT-29 = test: Anticancer activity against human HT-29 cells assessed as inhibition of cell proliferation by MTT assay; assay type: functional, cell-based
HCT-116 [1] = test: Anticancer activity against human HCT-116 cells assessed as inhibition of cell proliferation by MTT assay; assay type: functional, cell-based
RKO = test: Anticancer activity against human RKO cells assessed as inhibition of cell proliferation by MTT assay; assay type: functional, cell-based
LoVo = test: Anticancer activity against human LoVo cells assessed as inhibition of cell proliferation by MTT assay; assay type: functional, cell-based
SW480 = test: Anticancer activity against human SW480 cells assessed as inhibition of cell proliferation by MTT assay; assay type: functional, cell-based
Huh-7 = test: Anticancer activity against human Huh-7 cells assessed as inhibition of cell proliferation by MTT assay; assay type: functional, cell-based
SK-HEP1 = test: Anticancer activity against human SK-HEP1 cells assessed as inhibition of cell proliferation by MTT assay; assay type: functional, cell-based
A549 = test: Anticancer activity against human A549 cells assessed as inhibition of cell proliferation by MTT assay; assay type: functional, cell-based
MGC-803 = test: Anticancer activity against human MGC-803 cells assessed as inhibition of cell proliferation by MTT assay; assay type: functional, cell-based
[2] = Cytotoxicity against human WI-38 cells assessed as inhibition of cell proliferation by MTT assay; assay type: toxicity, cell-based
HCT-116 [3] = test: Anticancer activity against human HCT-116 cells assessed as inhibition of cell proliferation at 20 micromol/L incubated for 24 hrs by MTT assay; assay type: functional; details: HCT-116, 24 h, dose 20 µmol/L
HCT-116 [4] = test: Anticancer activity against human HCT-116 cells assessed as inhibition of cell proliferation at 40 micromol/L incubated for 24 hrs by MTT assay; assay type: functional; details: HCT-116, 24 h, dose 40 µmol/L
HCT-116 [5] = test: Anticancer activity against human HCT-116 cells assessed as inhibition of cell proliferation at 5 to 50 micromol/L incubated for 24 hrs by MTT assay; assay type: functional, cell-based; details: dose 5-50 µmol/L, DDE = dose-dependent effect
HCT-116 [6] = test: Anticancer activity against human HCT-116 cells assessed as inhibition of cell proliferation at 20 to 40 micromol/L incubated for 24 to 72 hrs by MTT assay; assay type: functional, cell-based; details: dose 20-40 µmol/L, time 24-72 hrs, TDE = time-dependent effect
HCT-116 [7] = test: Anticancer activity against human HCT-116 cells assessed as decrease in number of colonies at 25 micromol/L and measured after 48 hrs by crystal violet dye based colony formation assay; assay type: functional, cell-based; details: dose 25.0 µmol/L
HCT-116 [8] = test: Anticancer activity against human HCT-116 cells assessed as decrease in size of colonies at 25 micromol/L and measured after 48 hrs by crystal violet dye based colony formation assay; assay type: functional, cell-based; details: dose 25.0 µmol/L
HCT-116 [9] = test: Inhibition of cell migration in human HCT-116 cells at 20 micromol/L and measured after 24 hrs by crystal violet staining based transwell assay; assay type: functional; details: HCT-116, 24 h, dose 20 µmol/L
HCT-116 [10] = test: Inhibition of cell invasion in human HCT-116 cells at 20 micromol/L and measured after 24 hrs by crystal violet staining based transwell assay; assay type: functional; details: HCT-116, 24 h, dose 20 µmol/L
HCT-116 [11] = test: Induction of apoptosis in human HCT-116 cells assessed as contraction of cell volume at 30 micromol/L incubated for 48 hrs by Giemsa staining based fluorescence microscopy; assay type: functional; details: dose 30.0 µmol/L
HCT-116 [12] = test: Induction of cell cycle arrest in human HCT-116 cells assessed as accumulation G2/M phase at 25 micromol/L and measured after 48 hrs by propidium iodide staining based flow cytometry analysis (Rvb= 11%); assay type: functional; details: dose 25 µmol/L, at 25 µM
HCT-116 [13] = test: Induction of apoptosis in human HCT-116 cells assessed as necrotic cells at 30 micromol/L incubated for 48 hrs by annexin V-FITC and propidium iodide staining based flow cytometry analysis (reference value: 0.88%); assay type: functional; details: dose 30 µmol/L, at 30 µM
HCT-116 [14] = test: Induction of apoptosis in human HCT-116 cells assessed as late apoptotic cells at 30 micromol/L incubated for 48 hrs by annexin V-FITC and propidium iodide staining based flow cytometry analysis (reference value: 7.13%); assay type: functional; details: dose 30 µmol/L, at 30 µM
HCT-116 [15] = test: Induction of apoptosis in human HCT-116 cells assessed as early apoptotic cells at 30 micromol/L incubated for 48 hrs by annexin V-FITC and propidium iodide staining based flow cytometry analysis (reference value: 2.69%); assay type: functional; details: dose 30 µmol/L, at 30 µM
HCT-116 [16] = test: Induction of apoptosis in human HCT-116 cells assessed as viable cells at 30 micromol/L incubated for 48 hrs by annexin V-FITC and propidium iodide staining based flow cytometry analysis (reference value: 89.29%); assay type: functional; details: HCT-116, 48 h, dose 30 µmol/L, read-out: Activity
HCT-116 [17] = test: Induction of apoptosis in human HCT-116 cells assessed as unclear cell rupture edges at 30 micromol/L incubated for 48 hrs by Giemsa staining based fluorescence microscopy; assay type: functional; details: dose 30.0 µmol/L
HCT-116 [18] = test: Induction of apoptosis in human HCT-116 cells assessed as apoptotic body formation at 30 micromol/L incubated for 48 hrs by Giemsa staining based fluorescence microscopy; assay type: functional, cell-based; details: dose 30.0 µmol/L
HCT-116 [19] = test: Induction of apoptosis in human HCT-116 cells assessed as retraction of the nucleus at 30 micromol/L incubated for 48 hrs by Giemsa staining based fluorescence microscopy; assay type: functional, cell-based; details: dose 30.0 µmol/L
HCT-116 [20] = test: Induction of apoptosis in human HCT-116 cells assessed as retraction of the cytoplasm at 30 micromol/L incubated for 48 hrs by Giemsa staining based fluorescence microscopy; assay type: functional, cell-based; details: dose 30.0 µmol/L
HCT-116 [21] = test: Induction of apoptosis in human HCT-116 cells assessed as increase in number of apoptotic cells at 30 micromol/L incubated for 48 hrs by DAPI staining based fluorescence microscopy; assay type: functional, cell-based; details: dose 30.0 µmol/L
HCT-116 [22] = test: […] activity in human HCT-116 cells assessed as downregulation of Bcl-2 level at 30 micromol/L incubated for 48 hrs by Western blot analysis; assay type: functional, cell-based; details: dose 30.0 µmol/L
HCT-116 [23] = test: Anticancer activity in human HCT-116 cells assessed as downregulation of phosphorylated STAT3 level at 30 micromol/L incubated for 48 hrs by Western blot analysis; assay type: functional, cell-based; details: dose 30.0 µmol/L
HCT-116 [24] = test: Induction of mitochondrial membrane potential loss in human HCT-116 cells and measured after 48 hrs by TRME staining based flow cytometric analysis (reference value: 97.52%); assay type: functional
HCT-116 [25] = test: Induction of ROS generation in human HCT-116 cells assessed as increase in intracellular ROS level incubated for 48 hrs by DCFH-DA staining based flow cytometric analysis (Rvb=73.65%); assay type: functional
RAW264.7 [26] = test: Anti-inflammatory activity against mouse RAW264.7 cells assessed as inhibition of LPS-induced NO production incubated for 24 hrs in presence of LPS by Griess reagent-based assay; assay type: functional, cell-based; details: RAW264.7, 24 h
RAW264.7 [27] = test: Anti-inflammatory activity against mouse RAW264.7 cells assessed as downregulation of LPS-induced TNF-alpha level at 10 to 25 micromol/L incubated for 24 hrs in presence of LPS by ELISA; assay type: functional, cell-based; details: dose 10-25 µmol/L

IC50 (HT-29)	IC50 (HCT-116 [1])	IC50 (LoVo)	IC50 (SW480)	IC50 (Huh-7)	IC50 (SK-HEP1)	IC50 (A549)	IC50 (MGC-803)	SMILES	IC50 (RKO)	IC50 [2]	inhibition at 20 µM (HCT-116 [3])	inhibition at 40 µM (HCT-116 [4])	inhibition (HCT-116 [5])	inhibition (HCT-116 [6])	Activity (HCT-116 [7])	Activity (HCT-116 [8])	inhibition at 20 µM (HCT-116 [9])	inhibition at 20 µM (HCT-116 [10])	Activity (HCT-116 [11])	Activity (HCT-116 [12])	also measured
27.9 µM	23.7 µM	23.1 µM	28 µM	126 µM	50.7 µM	34.6 µM	26.4 µM	COc1cc(COC(=O)CC[C@@H](C)[C@H]2CC[C@H]3[C@@H]4[C@H](O)C[C@@H]5C[C@H](O)CC[C@]5(C)[C@H]4C[C@H](O)[C@]23C)cc(OC)c1	31.7 µM	> 500 µM	< 40%	90%	Dde	Tde	Active	Active	80%	80%	Active	89.77%	Activity (HCT-116 [13]): 1.65%; Activity (HCT-116 [14]): 76.88%; Activity (HCT-116 [15]): 2.01%; viability at 30 µM (HCT-116 [16]): 19.5%; Activity (HCT-116 [17]): Active; Activity (HCT-116 [18]): Active; Activity (HCT-116 [19]): Active; Activity (HCT-116 [20]): Active; Activity (HCT-116 [21]): Active; Activity (HCT-116 [22]): Active; Activity (HCT-116 [23]): Active; Activity (HCT-116 [24]): 70.35%; Activity (HCT-116 [25]): 93.87%; IC50 (RAW264.7 [26]): 20.6 µM; Activity (RAW264.7 [27]): Active
34.8 µM	22 µM	24.4 µM	31.8 µM	63 µM	71.9 µM	45.7 µM	21.8 µM	C[C@H](CCC(=O)OCc1ccc([N+](=O)[O-])cc1)[C@H]1CC[C@H]2[C@@H]3[C@H](O)C[C@@H]4C[C@H](O)CC[C@]4(C)[C@H]3C[C@H](O)[C@]12C	29.5 µM	> 500 µM	< 40%	90%	Dde	Tde	Active	Active	80%	80%	Active	93.18%	Activity (HCT-116 [13]): 0.96%; Activity (HCT-116 [14]): 84.27%; Activity (HCT-116 [15]): 0.93%; viability at 30 µM (HCT-116 [16]): 13.8%; Activity (HCT-116 [17]): Active; Activity (HCT-116 [18]): Active; Activity (HCT-116 [19]): Active; Activity (HCT-116 [20]): Active; Activity (HCT-116 [21]): Active; Activity (HCT-116 [22]): Active; Activity (HCT-116 [23]): Active; Activity (HCT-116 [24]): 58.32%; Activity (HCT-116 [25]): 97.06%; IC50 (RAW264.7 [26]): 20.6 µM; Activity (RAW264.7 [27]): Active
